Measured values reported in the supplement of paper PMC10307832.

Tests used:
Experiment in all cases: relative viability (nuclei count vs DMSO), 5 days (fraction); higher = more cells survive
NCI-H2126 = tested on: NCI-H2126
Summary of the method: (§1)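 Nuclei were stained with Hoechst during a one-step fixation (final 0.05% Triton X-100, 1% formaldehyde, 1 ug/ml Hoechst) carried out 5 days after dosing, then counted on 4× images. The cells, lung cancer lines in 1536-well plates, had been dosed by pin tool the day after seeding with one drug alone or a fixed anchor-drug dose plus five library-drug doses (not always all listed) in √10 steps. Relative viability is the nuclei count in treated wells divided by that in vehicle wells, and each value is the median of duplicate plates.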

CAL-12T = tested on: CAL-12T
Summary of the method: as §1

EPLC-272H = tested on: EPLC-272H
Summary of the method: as §1

LXF-289 = tested on: LXF-289
Summary of the method: as §1

NCI-H1915 = tested on: NCI-H1915
Summary of the method: as §1

NCI-H3122 = tested on: NCI-H3122
Summary of the method: as §1

HOP-62 = tested on: HOP-62
Summary of the method: as §1

NCI-H1975 = tested on: NCI-H1975
Summary of the method: as §1

NCI-H1666 = tested on: NCI-H1666
Summary of the method: as §1

UMC-11 = tested on: UMC-11
Summary of the method: as §1

NCI-H2023 = tested on: NCI-H2023
Summary of the method: as §1

NCI-H441 = tested on: NCI-H441
Summary of the method: as §1

EMC-BAC-2 = tested on: EMC-BAC-2
Summary of the method: as §1

NCI-H358 = tested on: NCI-H358
Summary of the method: as §1

HCC-15 = tested on: HCC-15
Summary of the method: as §1

NCI-H2085 = tested on: NCI-H2085
Summary of the method: as §1

NCI-H1755 = tested on: NCI-H1755
Summary of the method: as §1

COR-L 105 = tested on: COR-L 105
Summary of the method: as §1

ABC-1 = tested on: ABC-1
Summary of the method: as §1

HCC-78 = tested on: HCC-78
Summary of the method: as §1

NCI-H322M = tested on: NCI-H322M
Summary of the method: as §1

O=c1cc(-c2cccc3c2Sc2ccccc2S3)oc(N2CCOCC2)c1 + Cc1nc(NC(=O)N2CCC[C@H]2C(N)=O)sc1-c1ccnc(C(C)(C)C(F)(F)F)c1 [Alpelisib] (partner 2 µM) was tested, and the relative viability (NCI-H2126; first compound 0.08 µM) was 0.827, the relative viability (NCI-H2126; first compound 0.253 µM) was 0.822 and the relative viability (NCI-H2126; first compound 0.8 µM) was 0.734. The relative viability (NCI-H2126; first compound 2.53 µM) was 0.739, the relative viability (NCI-H2126; first compound 8 µM) was 0.735 and the relative viability (CAL-12T; first compound 0.08 µM) was 1.17. For the same molecule, the relative viability (CAL-12T; first compound 0.253 µM) was 1.28, the relative viability (CAL-12T; first compound 0.8 µM) was 1.56 and the relative viability (CAL-12T; first compound 2.53 µM) was 1.1. It also gave a relative viability (CAL-12T; first compound 8 µM) of 0.724, a relative viability (EPLC-272H; first compound 0.08 µM) of 0.966 and a relative viability (EPLC-272H; first compound 0.253 µM) of 1.11. For the same molecule, the relative viability (EPLC-272H; first compound 0.8 µM) was 0.987, the relative viability (EPLC-272H; first compound 2.53 µM) was 0.86 and the relative viability (EPLC-272H; first compound 8 µM) was 0.929. The relative viability (LXF-289; first compound 0.08 µM) was 1.1, the relative viability (LXF-289; first compound 0.253 µM) was 1.07 and the relative viability (LXF-289; first compound 0.8 µM) was 1.14. For the same molecule, the relative viability (LXF-289; first compound 2.53 µM) was 1.01, the relative viability (LXF-289; first compound 8 µM) was 1.07 and the relative viability (NCI-H1915; first compound 0.08 µM) was 1.15. It also gave a relative viability (NCI-H1915; first compound 0.253 µM) of 1.12, a relative viability (NCI-H1915; first compound 0.8 µM) of 1.07 and a relative viability (NCI-H1915; first compound 2.53 µM) of 0.994. For the same molecule, the relative viability (NCI-H1915; first compound 8 µM) was 1.11, the relative viability (NCI-H3122; first compound 0.08 µM) was 0.731 and the relative viability (NCI-H3122; first compound 0.253 µM) was 0.902. It also gave a relative viability (NCI-H3122; first compound 0.8 µM) of 0.796, a relative viability (NCI-H3122; first compound 2.53 µM) of 0.746 and a relative viability (NCI-H3122; first compound 8 µM) of 0.881. The relative viability (HOP-62; first compound 0.08 µM) was 0.962, the relative viability (HOP-62; first compound 0.253 µM) was 0.85 and the relative viability (HOP-62; first compound 0.8 µM) was 1.01. For the same molecule, the relative viability (HOP-62; first compound 2.53 µM) was 0.908, the relative viability (HOP-62; first compound 8 µM) was 1.18 and the relative viability (NCI-H1975; first compound 0.08 µM) was 0.722. It also gave a relative viability (NCI-H1975; first compound 0.253 µM) of 0.786, a relative viability (NCI-H1975; first compound 0.8 µM) of 0.656 and a relative viability (NCI-H1975; first compound 2.53 µM) of 0.498. The relative viability (NCI-H1975; first compound 8 µM) was 0.452, the relative viability (NCI-H1666; first compound 0.08 µM) was 0.789 and the relative viability (NCI-H1666; first compound 0.253 µM) was 1.13. For the same molecule, the relative viability (NCI-H1666; first compound 0.8 µM) was 0.82, the relative viability (NCI-H1666; first compound 2.53 µM) was 0.854 and the relative viability (NCI-H1666; first compound 8 µM) was 0.681. The relative viability (UMC-11; first compound 0.08 µM) was 0.965, the relative viability (UMC-11; first compound 0.253 µM) was 1.35 and the relative viability (UMC-11; first compound 0.8 µM) was 1.17. It also gave a relative viability (UMC-11; first compound 2.53 µM) of 0.98, a relative viability (UMC-11; first compound 8 µM) of 1.42 and a relative viability (NCI-H2023; first compound 0.08 µM) of 0.593. The relative viability (NCI-H2023; first compound 0.253 µM) was 0.82, the relative viability (NCI-H2023; first compound 0.8 µM) was 0.59 and the relative viability (NCI-H2023; first compound 2.53 µM) was 0.57. The relative viability (NCI-H2023; first compound 8 µM) was 0.49, the relative viability (NCI-H441; first compound 0.08 µM) was 0.736 and the relative viability (NCI-H441; first compound 0.253 µM) was 0.933. The relative viability (NCI-H441; first compound 0.8 µM) was 1.2, the relative viability (NCI-H441; first compound 2.53 µM) was 0.551 and the relative viability (NCI-H441; first compound 8 µM) was 0.691. It also gave a relative viability (EMC-BAC-2; first compound 0.08 µM) of 0.755, a relative viability (EMC-BAC-2; first compound 0.253 µM) of 0.799 and a relative viability (EMC-BAC-2; first compound 0.8 µM) of 0.815. It also gave a relative viability (EMC-BAC-2; first compound 2.53 µM) of 0.71, a relative viability (EMC-BAC-2; first compound 8 µM) of 0.856 and a relative viability (NCI-H358; first compound 0.08 µM) of 0.776. The relative viability (NCI-H358; first compound 0.253 µM) was 0.824, the relative viability (NCI-H358; first compound 0.8 µM) was 0.816 and the relative viability (NCI-H358; first compound 2.53 µM) was 0.786. It also gave a relative viability (NCI-H358; first compound 8 µM) of 0.795, a relative viability (HCC-15; first compound 0.08 µM) of 0.896 and a relative viability (HCC-15; first compound 0.253 µM) of 1.05. It also gave a relative viability (HCC-15; first compound 0.8 µM) of 0.89, a relative viability (HCC-15; first compound 2.53 µM) of 0.797 and a relative viability (HCC-15; first compound 8 µM) of 0.922. It also gave a relative viability (NCI-H2085; first compound 0.08 µM) of 0.907, a relative viability (NCI-H2085; first compound 0.253 µM) of 0.93 and a relative viability (NCI-H2085; first compound 0.8 µM) of 1.05. It also gave a relative viability (NCI-H2085; first compound 2.53 µM) of 0.779, a relative viability (NCI-H2085; first compound 8 µM) of 0.72 and a relative viability (NCI-H1755; first compound 0.08 µM) of 0.889. The relative viability (NCI-H1755; first compound 0.253 µM) was 1.22, the relative viability (NCI-H1755; first compound 0.8 µM) was 0.945 and the relative viability (NCI-H1755; first compound 2.53 µM) was 0.925. It also gave a relative viability (NCI-H1755; first compound 8 µM) of 0.964, a relative viability (COR-L 105; first compound 0.08 µM) of 1.1 and a relative viability (COR-L 105; first compound 0.253 µM) of 1.13. The relative viability (COR-L 105; first compound 0.8 µM) was 0.862, the relative viability (COR-L 105; first compound 2.53 µM) was 0.902 and the relative viability (COR-L 105; first compound 8 µM) was 1.12. The relative viability (ABC-1; first compound 0.08 µM) was 1.17, the relative viability (ABC-1; first compound 0.253 µM) was 1.14 and the relative viability (ABC-1; first compound 0.8 µM) was 1.16. For the same molecule, the relative viability (ABC-1; first compound 2.53 µM) was 0.901, the relative viability (ABC-1; first compound 8 µM) was 0.953 and the relative viability (HCC-78; first compound 0.08 µM) was 0.355. The relative viability (HCC-78; first compound 0.253 µM) was 0.319, the relative viability (HCC-78; first compound 0.8 µM) was 0.305 and the relative viability (HCC-78; first compound 2.53 µM) was 0.307. For the same molecule, the relative viability (HCC-78; first compound 8 µM) was 0.339, the relative viability (NCI-H322M; first compound 0.08 µM) was 0.784 and the relative viability (NCI-H322M; first compound 0.253 µM) was 0.79. For the same molecule, the relative viability (NCI-H322M; first compound 0.8 µM) was 0.79, the relative viability (NCI-H322M; first compound 2.53 µM) was 0.964 and the relative viability (NCI-H322M; first compound 8 µM) was 0.838.
